Patent US12697353B2, “Compositions comprising cinnamaldehyde and zinc and methods of using such compositions” (SOCIÉTÉ DES PRODUITS NESTLÉ S.A., priority 2015, dated 2026)

Key:
[1] = nose temperature after ingestion in human subjects; assay type: in vivo; conditions: fifteen minutes following ingestion, FIG. 7
Procedure: The nose temperature of the subjects was analyzed over the fifteen minutes following ingestion of the various compounds.

[2] = insulin sensitivity in mice with chronic ingestion of cinnamaldehyde in a high fat diet; assay type: in vivo; conditions: mice chronically fed a high fat diet containing 0.2 wt % cinnamaldehyde, FIG. 11
From the text: The composition can thereby reduce glycemia.

[3] = chin temperature after ingestion in human subjects; assay type: in vivo; conditions: eighty minutes following ingestion, FIG. 8
Procedure: The chin temperature of the subjects was measured over the eighty minutes following ingestion of the various compounds.

[4] = postprandial fat oxidation after ingestion in human subjects; assay type: in vivo
Procedure: The postprandial fat oxidation was measured over the 90 minutes following ingestion of the various compounds.

[5] = energy expenditure after ingestion in human subjects; assay type: in vivo
Procedure: Human subjects were administered placebo, a cooling flavor, capsaicin, or cinnamaldehyde. The energy expenditure was measured over the eighty minutes following ingestion. […] The increased sympathetic activity identified by measuring the facial temperature (increased blood flow on the chin) might explain the increased energy expenditure measured by indirect calorimetry.

TRPA1 = TRPA1 (Homo sapiens, UniProt O75762); conditions: read-out: EC50 of TRPA1 activation; cited from earlier work
[6] = biological target: T1, hTRPA1 expressed in CHO cells (Homo sapiens, UniProt O75762); test: in vitro activity of hTRPA1 expressed in CHO cells, intracellular calcium concentration with a fluorescent dye; assay type: cell-based; design: dose or concentration left out as unconfirmed; conditions: according to a dose-response curve
T1 construct: expressed in transfected cells; host or cells: CHO cells

[7] = at a flavoring level judged significantly less intense than capsaicin

T1 sequence (O75762 whole entry): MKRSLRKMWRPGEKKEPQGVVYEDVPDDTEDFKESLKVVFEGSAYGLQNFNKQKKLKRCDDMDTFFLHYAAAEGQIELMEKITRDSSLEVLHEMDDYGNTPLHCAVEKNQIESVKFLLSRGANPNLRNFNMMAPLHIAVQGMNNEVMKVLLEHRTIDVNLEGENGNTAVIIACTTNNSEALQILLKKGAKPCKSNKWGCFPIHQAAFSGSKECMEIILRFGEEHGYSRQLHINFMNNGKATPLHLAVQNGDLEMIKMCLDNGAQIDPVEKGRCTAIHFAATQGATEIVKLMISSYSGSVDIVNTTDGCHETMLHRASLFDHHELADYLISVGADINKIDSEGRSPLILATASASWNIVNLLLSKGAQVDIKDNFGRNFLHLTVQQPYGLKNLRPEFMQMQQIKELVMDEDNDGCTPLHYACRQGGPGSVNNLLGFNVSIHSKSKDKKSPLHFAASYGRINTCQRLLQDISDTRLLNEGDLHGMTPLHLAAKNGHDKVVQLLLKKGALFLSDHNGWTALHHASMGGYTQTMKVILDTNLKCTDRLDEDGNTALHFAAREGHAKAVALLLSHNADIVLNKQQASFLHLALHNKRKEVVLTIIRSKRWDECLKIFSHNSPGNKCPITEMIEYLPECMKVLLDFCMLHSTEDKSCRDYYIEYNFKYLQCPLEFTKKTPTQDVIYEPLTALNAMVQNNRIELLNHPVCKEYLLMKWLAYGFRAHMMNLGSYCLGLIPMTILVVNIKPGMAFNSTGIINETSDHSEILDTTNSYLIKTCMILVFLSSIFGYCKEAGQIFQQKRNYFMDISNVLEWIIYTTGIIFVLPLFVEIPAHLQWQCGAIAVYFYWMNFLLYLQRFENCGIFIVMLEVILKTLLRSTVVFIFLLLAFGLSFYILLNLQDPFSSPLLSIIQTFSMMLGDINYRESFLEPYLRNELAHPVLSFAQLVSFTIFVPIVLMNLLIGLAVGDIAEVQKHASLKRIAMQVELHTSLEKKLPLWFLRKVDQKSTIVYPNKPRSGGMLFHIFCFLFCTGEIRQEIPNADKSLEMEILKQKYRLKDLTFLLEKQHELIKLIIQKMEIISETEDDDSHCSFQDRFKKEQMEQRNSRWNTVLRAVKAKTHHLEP
Chain of TRPA1 (O75762 whole entry, species assumed): as the sequence (O75762 whole entry) above

Q: Which nose temperature [1] does the source give for `COc1cc(CNC(=O)CCCC/C=C/C(C)C)ccc1O` [capsaicin, reference compound] here?
A: increase nose temperatures

Q: What does the source list for `O=CC=Cc1ccccc1` [cinnamaldehyde]?
A: insulin sensitivity relative to mice fed the same high fat diet without cinnamaldehyde [2]: improved insulin sensitivity; chin temperature relative to baseline [3]: increases chin temperature for a prolonged time; effect on fat oxidation compared to capsaicin [4, 7]: equivalent effect; postprandial fat oxidation compared to placebo ([4]; human subjects, 90 minutes following ingestion, time course and AUC, FIGS. 5 and 6): maintained at higher levels; nose temperature [1]: increase nose temperatures; impact on energy expenditure and sympathetic nervous system activity compared to capsaicin [5, 7]: significantly higher impact; energy expenditure compared to placebo ([5]; human subjects, eighty minutes following ingestion, time course and AUC, FIGS. 3 and 4): increased; EC50 (TRPA1): ~10 µM; efficacy on hTRPA1 of the positive control C+ [6]: maximum efficacy
